Reference: patent publication EP0377642B1, “HERBICIDES FOR WEED CONTROL IN RICE” (E.I. DU PONT DE NEMOURS AND COMPANY, priority 1987, dated 1989)

Columns and labels:
[1] = test system: MV; test: Herbicidal efficacy in relation to application timing in Indonesia (Table 5); assay type: in vivo
Source text: (§1) Methyl 2-[[[[(4-methoxy-6-methyl-1,3,5-triazin-2-yl)amino]carbonyl]amino]sulfonyl]benzoate (Compound 1) and mixtures thereof with other compounds were applied as a spray (using a hand sprayer) to rice (either transplanted or direct seeded) in several rice growing areas in Southeast Asia and in the U.S. Tables 1-28 contain the results of these tests and clearly exemplify the utility of this invention. The details of each application are included in the appropriate table. [drawing 2]

[2] = test system: PS; test: as above; assay type: in vivo
Source text: as §1

COC(=O)c1ccccc1S(=O)(=O)NC(=O)Nc1nc(C)nc(OC)n1 [Compound 1, Methyl 2-[[[[(4-methoxy-6-methyl-1,3,5-triazin-2-yl)amino]carbonyl]amino]sulfonyl]benzoate]
% CONTROL MV ([1]; 3 WAT, 2 GAI/HA, evaluation 1): 80%
% CONTROL MV ([1]; 3 WAT, 2 GAI/HA, evaluation 2): 80%
% CONTROL MV ([1]; 3 WAT, 2 GAI/HA, evaluation 3): 100%
% CONTROL MV ([1]; 3 WAT, 3 GAI/HA, evaluation 1): 80%
% CONTROL MV ([1]; 3 WAT, 3 GAI/HA, evaluation 2): 100%
% CONTROL MV ([1]; 3 WAT, 3 GAI/HA, evaluation 3): 100%
% CONTROL MV ([1]; 3 WAT, 4 GAI/HA, evaluation 1): 100%
% CONTROL MV ([1]; 3 WAT, 4 GAI/HA, evaluation 2): 100%
% CONTROL MV ([1]; 3 WAT, 4 GAI/HA, evaluation 3): 100%
% CONTROL MV ([1]; 3 WAT, 6 GAI/HA, evaluation 1): 80%
% CONTROL MV ([1]; 3 WAT, 6 GAI/HA, evaluation 2): 100%
% CONTROL MV ([1]; 3 WAT, 6 GAI/HA, evaluation 3): 100%
% CONTROL MV ([1]; 3 WAT, 8 GAI/HA, evaluation 1): 100%
% CONTROL MV ([1]; 3 WAT, 8 GAI/HA, evaluation 2): 100%
% CONTROL MV ([1]; 3 WAT, 8 GAI/HA, evaluation 3): 100%
% CONTROL MV ([1]; 4 WAT, 2 GAI/HA, evaluation 1): 80%
% CONTROL MV ([1]; 4 WAT, 2 GAI/HA, evaluation 2): 100%
% CONTROL MV ([1]; 4 WAT, 2 GAI/HA, evaluation 3): 100%
% CONTROL MV ([1]; 4 WAT, 3 GAI/HA, evaluation 1): 80%
% CONTROL MV ([1]; 4 WAT, 3 GAI/HA, evaluation 2): 100%
% CONTROL MV ([1]; 4 WAT, 3 GAI/HA, evaluation 3): 100%
% CONTROL MV ([1]; 4 WAT, 4 GAI/HA, evaluation 1): 80%
% CONTROL MV ([1]; 4 WAT, 4 GAI/HA, evaluation 2): 100%
% CONTROL MV ([1]; 4 WAT, 4 GAI/HA, evaluation 3): 100%
% CONTROL MV ([1]; 4 WAT, 6 GAI/HA, evaluation 1): 80%
% CONTROL MV ([1]; 4 WAT, 6 GAI/HA, evaluation 2): 100%
% CONTROL MV ([1]; 4 WAT, 6 GAI/HA, evaluation 3): 100%
% CONTROL MV ([1]; 4 WAT, 8 GAI/HA, evaluation 1): 100%
% CONTROL MV ([1]; 4 WAT, 8 GAI/HA, evaluation 2): 100%
% CONTROL MV ([1]; 4 WAT, 8 GAI/HA, evaluation 3): 100%
% CONTROL MV ([1]; 5 WAT, 2 GAI/HA, evaluation 1): 80%
% CONTROL MV ([1]; 5 WAT, 2 GAI/HA, evaluation 2): 80%
% CONTROL MV ([1]; 5 WAT, 2 GAI/HA, evaluation 3): 80%
% CONTROL MV ([1]; 5 WAT, 3 GAI/HA, evaluation 1): 80%
% CONTROL MV ([1]; 5 WAT, 3 GAI/HA, evaluation 2): 100%
% CONTROL MV ([1]; 5 WAT, 3 GAI/HA, evaluation 3): 100%
% CONTROL MV ([1]; 5 WAT, 4 GAI/HA, evaluation 1): 80%
% CONTROL MV ([1]; 5 WAT, 4 GAI/HA, evaluation 2): 100%
% CONTROL MV ([1]; 5 WAT, 4 GAI/HA, evaluation 3): 100%
% CONTROL MV ([1]; 5 WAT, 6 GAI/HA, evaluation 1): 80%
% CONTROL MV ([1]; 5 WAT, 6 GAI/HA, evaluation 2): 100%
% CONTROL MV ([1]; 5 WAT, 6 GAI/HA, evaluation 3): 100%
% CONTROL MV ([1]; 5 WAT, 8 GAI/HA, evaluation 1): 100%
% CONTROL MV ([1]; 5 WAT, 8 GAI/HA, evaluation 2): 100%
% CONTROL MV ([1]; 5 WAT, 8 GAI/HA, evaluation 3): 100%
% CONTROL PS ([2]; 3 WAT, 2 GAI/HA, evaluation 1): 0%
% CONTROL PS ([2]; 3 WAT, 2 GAI/HA, evaluation 2): 0%
% CONTROL PS ([2]; 3 WAT, 2 GAI/HA, evaluation 3): 0%
% CONTROL PS ([2]; 3 WAT, 3 GAI/HA, evaluation 1): 0%
% CONTROL PS ([2]; 3 WAT, 3 GAI/HA, evaluation 2): 0%
% CONTROL PS ([2]; 3 WAT, 3 GAI/HA, evaluation 3): 0%
% CONTROL PS ([2]; 3 WAT, 4 GAI/HA, evaluation 1): 0%
% CONTROL PS ([2]; 3 WAT, 4 GAI/HA, evaluation 2): 0%
% CONTROL PS ([2]; 3 WAT, 4 GAI/HA, evaluation 3): 0%
% CONTROL PS ([2]; 3 WAT, 6 GAI/HA, evaluation 1): 0%
% CONTROL PS ([2]; 3 WAT, 6 GAI/HA, evaluation 2): 0%
% CONTROL PS ([2]; 3 WAT, 6 GAI/HA, evaluation 3): 0%
% CONTROL PS ([2]; 3 WAT, 8 GAI/HA, evaluation 1): 0%
% CONTROL PS ([2]; 3 WAT, 8 GAI/HA, evaluation 2): 0%
% CONTROL PS ([2]; 3 WAT, 8 GAI/HA, evaluation 3): 0%
% CONTROL PS ([2]; 4 WAT, 2 GAI/HA, evaluation 1): 0%
% CONTROL PS ([2]; 4 WAT, 2 GAI/HA, evaluation 2): 0%
% CONTROL PS ([2]; 4 WAT, 2 GAI/HA, evaluation 3): 0%
% CONTROL PS ([2]; 4 WAT, 3 GAI/HA, evaluation 1): 0%
% CONTROL PS ([2]; 4 WAT, 3 GAI/HA, evaluation 2): 0%
% CONTROL PS ([2]; 4 WAT, 3 GAI/HA, evaluation 3): 0%
% CONTROL PS ([2]; 4 WAT, 4 GAI/HA, evaluation 1): 0%
% CONTROL PS ([2]; 4 WAT, 4 GAI/HA, evaluation 2): 0%
% CONTROL PS ([2]; 4 WAT, 4 GAI/HA, evaluation 3): 0%
% CONTROL PS ([2]; 4 WAT, 6 GAI/HA, evaluation 1): 0%
% CONTROL PS ([2]; 4 WAT, 6 GAI/HA, evaluation 2): 0%
